Experimental findings from patent publication US20070032477A1, “Pteridine derivatives useful for making pharmaceutical compositions” (priority 2003, published 2007) are described below.

For experiment [1], the system named is mixed lymphocyte reaction (PBMC with allogeneic PBMC or Eppstein-Barr Virus-transformed human B cells as stimulator cells). Kind of experiment: Mixed lymphocyte reaction (MLR) assay. Type of experiment: cell-based. Conditions: lowest concentration giving 50% suppression of the MLR; [3H]-thymidine. How it is done: Pteridine derivatives were first dissolved (10 mM) in dimethylsulfoxide (hereinafter referred as DMSO) and further diluted in culture medium before use for the following in vitro experiments. The commercially available culture medium consisted of RPMI-1640+10% foetal calf serum (FCS). Some pteridine derivatives described in the previous examples (as indicated in table 1) were tested in the following mixed lymphocyte reaction (MLR) assay.
Peripheral blood mononuclear cells (hereinafter referred as PBMC) were isolated from heparinized peripheral blood by density gradient centrifugation over Lymphoprep (Nycomed, Maorstua, Norway). Allogeneic PBMC or Eppstein-Barr Virus-transformed human B cells [commercially available under the trade name RPM11788 (ATCC name CCL156)] which strongly express B7-1 and B7-2 antigens were used as stimulator cells after irradiation with 30 Gy. MLR was performed in triplicate wells. After 5 days incubation at 37° C., 1 μCi [^3H]-thymidine was added to each cup. After a further 16 hours incubation, cells were harvested and counted in a […]. Inhibition of proliferation by a compound (drug) described in some of the previous examples was counted using the formula: [formula] wherein cpm is the thymidine count per minute. The MLR assay is regarded by those skilled in the art as an in vitro analogue of the transplant rejection since it is based on the recognition of allogeneic major histocompatibility antigens on the stimulator leukocytes, by responding lymphocytes.

In experiment [2] the test system is production of TNF-α by PBMC in response to stimulation by LPS. The experiment can be described thus: TNF-α assay. Type of experiment: cell-based, human. The following applies: LPS 1 μg/ml, 72 hours, sandwich ELISA. How it is done:
Peripheral blood mononuclear cells (herein referred as PBMC), in response to stimulation by lipopolysaccharide (hereinafter LPS), a gram-negative bacterial endotoxin, produce various […], in particular human TNF-α. Inhibition of the activation of PBMC can therefore be measured by the level of suppression of the production of TNF-α by PBMC in response to stimulation by LPS.
Such inhibition measurement was performed as follows: PBMC were isolated from heparinized peripheral blood by density gradient centrifugation over Lymphoprep (commercially available from Nycomed, Norway). LPS was then added to the PMBC suspension in complete medium (10^6 cells/ml) at a final concentration of 1 μg/ml. The pteridine derivative to be tested was added at different concentrations (0.1 μM, 1 μM and 10 μM) and the cells were incubated at 37° C. for 72 hours in 5% CO2. The supernatants were collected, then TNF-α concentrations were measured with respectively an anti-TNF-α antibody in a sandwich ELISA (Duo Set ELISA human TNFα, commercially available from R&D Systems, United Kingdom). The calorimetric reading of the ELISA was measured by a Multiskan RC plate reader (commercially available from ThermoLabsystems, Finland) at 450 nm (reference wavelength: 690 nm). Data analysis was performed with Ascent software 2.6. (also from ThermoLabsystems, Finland): a standard curve (recombinant human TNFα) was drawn and the amount (pg/ml) of each sample on the standard curve was determined.
The % suppression of human TNFα production by the pteridine derivatives of the invention (drugs) was calculated using the formula: [formula]

`COc1ccc(-c2cnc3nc(N)nc(N4CCN(C(=O)c5cccs5)CC4)c3n2)cc1OC` [Example 13, 2-amino-4-[(N-2-thiophenecarbonyl)-piperazin-1-yl]-6-(3,4-dimethoxy-phenyl)pteridine]: the IC50 in experiment [1] was 100 nM; in experiment [2] it was 80 nM.
The matching figures for `CCN(CC)C(=O)N1CCN(c2nc(N)nc3ncc(-c4ccc(OC)c(OC)c4)nc23)CC1` [Example 14, 2-amino-4-[(N-diethylcarbamoyl)-piperazin-1-yl]-6-(3,4-dimethoxy-phenyl)pteridine]: 200 nM and 60 nM.
The matching figures for `COc1ccc(-c2cnc3nc(N)nc(N4CCN(C(=O)c5ccc(C#N)cc5)CC4)c3n2)cc1OC` [Example 16, 2-amino-4-[N-(4-cyanobenzoyl)-piperazin-1-yl]-6-(3,4-dimethoxyphenyl)pteridine]: 800 nM and 550 nM.
Consider `CCCCc1ccc(C(=O)N2CCN(c3nc(N)nc4ncc(-c5ccc(OC)c(OC)c5)nc34)CC2)cc1` [Example 18, 2-amino-4-[(N-4-butylbenzoyl)-piperazin-1-yl]-6-(3,4-dimethoxyphenyl)pteridine], for which the results for the IC50 in experiment [1] and in experiment [2] were 300 nM and 90 nM, respectively.
The matching figures for `COc1ccc(-c2cnc3nc(N)nc(N4CCN(C(=O)c5ccncc5)CC4)c3n2)cc1OC` [Example 19, 2-amino-4-[(N-isonicotinoyl)-piperazin-1-yl]-6-(3,4-dimethoxyphenyl)pteridine]: 2400 nM and 60 nM.
The matching figures for `COc1cccc(C(=O)N2CCN(c3nc(N)nc4ncc(-c5ccc(OC)c(OC)c5)nc34)CC2)c1` [Example 26, 2-amino-4-[N-(3-methoxybenzoyl)piperazin-1-yl]-6-(3,4-dimethoxy-phenyl)pteridine]: 500 nM and 500 nM.
The matching figures for `COc1ccc(-c2cnc3nc(N)nc(N4CCN(C(=O)c5ccco5)CC4)c3n2)cc1OC` [Example 27, 2-amino-4-[N-(2-furoyl)-piperazin-1-yl]-6-(3,4-dimethoxyphenyl)pteridine]: 80 nM and 500 nM.
In the case of `COc1ccc(-c2cnc3nc(N)nc(N4CCN(C(=O)COCc5ccccc5)CC4)c3n2)cc1OC` [Example 28, 2-amino-4-[(N-benzyloxyacetyl)-piperazin-1-yl]-6-(3,4-dimethoxyphenyl)pteridine], the values for the IC50 in experiment [1] and in experiment [2] were 30 nM and 500 nM, respectively.
The matching figures for `COc1ccc(-c2cnc3nc(N)nc(N4CCN(C(=O)COc5ccc(Cl)cc5)CC4)c3n2)cc1OC` [Example 29]: 0.5 nM and 77 nM.
Take `COc1ccc(-c2cnc3nc(N)nc(N4CCN(C(=O)C5CCCCC5)CC4)c3n2)cc1OC` [Example 30, 2-amino-4-[(N-cyclohexylcarbonyl)-piperazin-1-yl]-6-(3,4-dimethoxy-phenyl)pteridine]: the IC50 stood at 100 nM in experiment [1] and 300 nM in experiment [2].
The matching figures for `COc1ccc(-c2cnc3nc(N)nc(N4CCN(S(=O)(=O)c5ccccc5)CC4)c3n2)cc1OC` [Example 31, 2-amino-4-[(N-phenylsulfonyl)-piperazin-1-yl]-6-(3,4-dimethoxy-phenyl)pteridine]: 3000 nM and 500 nM.
Take `COc1ccc(-c2cnc3nc(N)nc(N4CCN(C(=O)c5ccc(F)cc5)CC4)c3n2)cc1OC` [Example 32, 2-amino-4-[(N-p-fluorobenzoyl)-piperazin-1-yl]-6-(3,4-dimethoxyphenyl)pteridine]: the IC50 in experiment [1] and in experiment [2] was 400 nM each time.
For `COc1ccc(-c2cnc3nc(N)nc(N4CCN(C(=O)N5CCCC5)CC4)c3n2)cc1OC` [Example 38, 2-amino-4-[(N-1-pyrrolidinylcarbonyl)-piperazin-1-yl]-6-(3,4-dimethoxy-phenyl)pteridine], the figures for the concentration for half-maximal inhibition (IC50) in experiment [1] and in experiment [2] were 300 nM and 60 nM, respectively.
The matching figures for `COc1ccc(-c2cnc3nc(N)nc(N4CCN(C(=O)N(c5ccccc5)c5ccccc5)CC4)c3n2)cc1OC` [Example 39, 2-amino-4-[(N-diphenylcarbamoyl)-piperazin-1-yl]-6-(3,4-dimethoxy-phenyl)pteridine]: 700 nM and 800 nM.
The matching figures for `COc1ccc(-c2cnc3nc(N)nc(N4CCN(C(=O)c5ccccc5OC)CC4)c3n2)cc1OC` [Example 42, 2-amino-4-[N-(2-methoxybenzoyl)-piperazin-1-yl]-6-(3,4-dimethoxy-phenyl)pteridine]: 400 nM and 100 nM.
The matching figures for `COc1ccc(-c2cnc3nc(N)nc(N4CCN(S(=O)(=O)Cc5ccccc5)CC4)c3n2)cc1OC` [Example 43, 2-amino-4-[(N-benzylsulfonyl)-piperazin-1-yl]-6-(3,4-dimethoxyphenyl)pteridine]: 200 nM and 700 nM.
In the case of `COc1ccc(-c2cnc3nc(N)nc(N4CCN(C(=O)c5ccc(Cl)c(Cl)c5)CC4)c3n2)cc1OC` [Example 44, 2-amino-4-[N-(3,4-dichlorobenzoyl)-piperazin-1-yl]-6-(3,4-dimethoxy-phenyl)pteridine], the results for the concentration for half-maximal inhibition (IC50) in experiment [1] and in experiment [2] were 200 nM and 700 nM, respectively.
In the case of `COc1ccc(-c2cnc3nc(N)nc(N4CCN(C(=O)Cc5ccc(Cl)cc5)CC4)c3n2)cc1OC` [Example 45, 2-amino-4-[N-(4-chlorophenylacetyl)-piperazin-1-yl]-6-(3,4-dimethoxy-phenyl)pteridine], the results for the 50% inhibitory concentration (IC50) in experiment [1] and in experiment [2] were 90 nM and 400 nM, respectively.
The matching figures for `COc1ccc(-c2cnc3nc(N)nc(N4CCN(C(=O)OCc5ccccc5)CC4)c3n2)cc1OC` [Example 48, 2-amino-4-[(N-benzyloxycarbonyl)-piperazin-1-yl]-6-(3,4-dimethoxy-phenyl)pteridine]: 300 nM and 80 nM.
The matching figures for `COc1ccc(-c2cnc3nc(N)nc(N4CCN(C(=S)Oc5ccccc5)CC4)c3n2)cc1OC` [Example 51, 2-amino-4-[(N-phenoxythiocarbonyl)-piperazin-1-yl]-6-(3,4-dimethoxy-phenyl)pteridine]: 300 nM and 40 nM.
The matching figures for `COc1ccc(-c2cnc3nc(N)nc(N4CCN(C(=O)[C@@H](N)Cc5ccccc5)CC4)c3n2)cc1OC` [Example 60, 2-amino-4-[N-(2-(S)-amino-3-phenylpropionyl)-piperazin-1-yl]-6-(3,4-dimethoxy-phenyl)pteridine]: 4100 nM and 2500 nM.
For the compound `COc1ccc(-c2cnc3nc(N)nc(N4CCN(C/C=C/c5ccccc5)CC4)c3n2)cc1OC` [Example 66, 2-amino-4-(N-trans-cinnamylpiperazin-1-yl)-6-(3,4-dimethoxy-phenyl)pteridine], the values for the IC50 in experiment [1] and in experiment [2] were 800 nM and 300 nM, respectively.
The matching figures for `COc1ccc(-c2cnc3nc(NCCc4ccccc4)nc(N)c3n2)cc1OC` [Example 79, 2-phenylethylamino-4-amino-6-(3,4-dimethoxyphenyl)pteridine]: 4100 nM and 9800 nM.
The matching figures for `COc1ccc(-c2cnc3nc(N)nc(N4CCCN(C(=O)COc5ccccc5)CC4)c3n2)cc1OC` [Example 89]: 87 nM and 1200 nM.
The matching figures for `COc1ccc(-c2cnc3nc(N)nc(N4CCN(C(=O)Oc5ccc(C)cc5)CC4)c3n2)cc1OC` [Example 90, 2-amino-4-[(N-4-methyl-phenoxy-carbonyl)-piperazin-1-yl]-6-(3,4-dimethoxyphenyl)pteridine]: 58 nM and 40 nM.
Take `COc1ccc(-c2cnc3nc(N)nc(N4CCN(C(=O)Oc5ccc(Cl)cc5)CC4)c3n2)cc1OC` [Example 94]: the figures for the IC50 in experiment [1] and in experiment [2] were 100 nM and 90 nM, respectively.
As to `COc1ccc(-c2cnc3nc(N)nc(N4CCN(C(=O)Oc5ccccc5Cl)CC4)c3n2)cc1OC` [Example 96, 2-amino-4-[N-(2-chloro)-phenoxy-carbonyl-piperazin-1-yl]-6-(3,4-dimethoxyphenyl)pteridine], the IC50 came to 150 nM in experiment [1] and 10 nM in experiment [2].

As usually defined, the IC50 is the concentration at which inhibition is half-maximal. Low readings indicate inhibition by little substance, high ones a need for much substance.
